Data on ten molecules can be found in patent publication US4064228A (priority 1975, dated 1977).

Structures are written as SMILES. Where two headings read alike, the source gives them in different places.

In assay [1] the test system is antibody to 3-carboxymethyl opium alkaloid-protein antigen (Leute). The conditions noted are these: Leute et al., J.A.M.A. 1972; Nature (New Biology) 1972; cited from earlier work.
The subject of assay [2] is antibody raised to azomorphine conjugate (crude antisera). The format is binding. The conditions noted are these: morphine taken as 100%; for % Cross-reactivity: M50/A50 (amounts for 50% inhibition of labeled hapten binding), Abraham method; for Cross-reactivity of morphine-specific antibody (general statement): under the conditions just described / similarly measured. As to the method: After 2 hours, an equal volume of a neutral, saturated ammonium sulfate solution was added. The resulting precipitates, sedimented by centrifugation at 3000 rpm for 15 minutes at 4° C, were washed once in 50% saturated ammonium sulphate solution. Each precipitate was dissolved in 0.2 ml NCS solubilizer (Amersham-Searle Corp.) and transferred to a scintillation counting vial containing 10 ml. Aquasol dispersant (New England Nuclear Corp.) and counted in a Nuclear Chicago Liquid Scintillation Spectrometer.
Cross-reactivity was computed by the method of Abraham, J. Clin. Endocrin. & Metab.

Assay [3] relates to opium alkaloid antibody (prior art, raised with morphine). The conditions noted are these: summary of all prior art known to applicant; cited from earlier work.
Assay [4] deals with antibody IgG raised to azomorphine conjugate (morphine-specific). The format is binding. How it is done: The dried sorbent (300 mg) was washed with 50 ml. saline (0.9%) five times and suspended in a final volume of 15 ml, to which 5 ml of crude antiserum raised to the azomorphine conjugate of Example 5, supra was added. […] The matrix recovered by centrifugation was used as a slurry. 10 ml, […] HCL was added to sorbent. After centrifugation for 1 minute the filtered supernatant was neutralized at once with 1 M dibasic sodium phosphate. The acid base cycle was repeated three times. The recovered antibody solution was dialyzed against 12 liters of 0.1 M phosphate buffer, pH 7.4. […] The specificities of recovered antibody IgG were next determined by immune fluorescence techniques.
Quenching of antibody fluorescence was performed using antibody IgG from non pooled samples. […] Native alkaloid was added in increasing amounts to each tube containing azomorphine and IgG in a 10:1 hapten: antibody ratio (× 10^-10 moles/ml). The alkaloid was added to IgG simultaneously with or in advance of azomorphine. All dilutions were done in triplicate. Incubations including controls were carried out for 10 minutes to 12 hours at 23° C.

Assay [5] has as its system antibody to 3-carboxymethyl opium alkaloid-protein antigen (Spector). The conditions noted are these: Spector U.S. Pat. Nos. 3,709,868 and 3,822,245; cited from earlier work.
In the next assay the test system is antibodies to serotonin. As to conditions: reported by Spector et al., Science 179:1340 (1973); cited from earlier work.
[6] abbreviates: even in vast hapten excess, azomorphine:IgG 10:1.

For `COc1ccc2c3c1O[C@H]1[C@@H](O)C=C[C@H]4[C@@H](C2)N(C)CC[C@@]341` [Codeine, codeine], the results for the Cross-reactivity with codeine entry in assay [1], in assay [3] and in assay [5] were “high cross-reactivity”, “extremely high cross-reactivity” and “very high cross-reactivity”, respectively. The “% Cross-reactivity” value in assay [2] turned out to be 11%. In assay [2], the “Cross-reactivity of morphine-specific antibody (general statement)” value (shortened to “Cross-reactivity … (general statement)”) was at most 20%. Also, in assay [4] (setting [6]), the “Inhibition of fluorescence quenching” value is “slight”.

As to `COc1ccc2c(c1)[C@@]13CCCC[C@H]1[C@@H](C2)N(C)CC3` [Dextromethorphan, 3-methoxy N-methyl morphinan], in assay [2], the “% Cross-reactivity” value was 0.01% and the “Cross-reactivity … (general statement)” value is given as at most 0.1%. In addition, the “Inhibition of fluorescence quenching” value in assay [4] (setting [6]) is listed as “slight”.

`CCOc1ccc2c3c1O[C@H]1[C@@H](O)C=C[C@H]4[C@@H](C2)N(C)CC[C@@]341` [Ethylmorphine]: in assay [2], the “% Cross-reactivity” value was found to be 16%.

Consider `CN1CC[C@]23c4c5cc(N=Nc6ccc(C(=O)O)cc6)c(O)c4O[C@H]2[C@@H](O)C=C[C@H]3[C@H]1C5` [Example 1, 2-(4'-carboxyphenylazo) morphine], for which the “Cross-reactivity … (general statement)” value in assay [2] is “about 100%”. The “Association constants determined by the Sips equation applied to fluorescence data” value in assay [4] (antibody IgG from non pooled samples) was in the range of 1e+07 to 3e+08 L/mol. Moreover, the “Quenching maxima (antibody fluorescence)” value in assay [4] (antibody IgG from non pooled samples, azomorphine as quencher, 23° C) is reported as 56-77%.

Turning to `CCC(=O)C(CC(C)N(C)C)(c1ccccc1)c1ccccc1` (stereo not shown) [Methadone], in assay [2], the “% Cross-reactivity” value came out at 0.01% and the “Cross-reactivity … (general statement)” value is at most 0.1%.

For the molecule `CC(=O)O[C@H]1C=C[C@H]2[C@H]3Cc4ccc(O)c5c4[C@@]2(CCN3C)[C@H]1O5` [Monoacetylmorphine], in assay [2], the “% Cross-reactivity” value came to 7% and the “Cross-reactivity … (general statement)” value was “not more than 10%”. Further, in assay [4] (setting [6]), the “Inhibition of fluorescence quenching” value is “slight”.

For the molecule `CN1CC[C@]23c4c5ccc(O)c4O[C@H]2[C@@H](O)C=C[C@H]3[C@H]1C5` [Morphine, morphine], in assay [2], the “% Cross-reactivity” value was 100%. For the same molecule, in assay [4] (morphine 40 × 10^-10 moles/ml, 1 × 10^-10 moles/ml antibody, 10 × 10^-10 moles/ml azomorphine), the “Inhibition of fluorescence quenching” value is “completely inhibited”.

Regarding `C=CCN1CC[C@]23c4c5ccc(O)c4O[C@H]2[C@@H](O)C=C[C@H]3[C@H]1C5` [N-allylnormorphine], the “% Cross-reactivity” value in assay [2] stood at 2%.

Turning to `CC(=O)Oc1ccc2c3c1O[C@H]1[C@@H](OC(C)=O)C=C[C@H]4[C@@H](C2)N(C)CC[C@@]341` [heroin, Diacetylmorphine], in assay [2], the “% Cross-reactivity” value turned out to be 7% and the “Cross-reactivity … (general statement)” value was “not more than 10%”. Also, the “Inhibition of fluorescence quenching” value in assay [4] (setting [6]) is reported as “slight”.

For `COc1ccc2[nH]cc(CCN)c2c1` [methoxyserotonin, 5-methoxytryptamine], in the assay with antibodies to serotonin, the “Cross-reactivity with serotonin antibodies” value was “substantially complete cross-reactivity”.
